Molecular target: T1, PAD4 (Homo sapiens, UniProt Q9UM07, G112A/G55S/V82A)
T1 construct: made in house
Assay: Inhibition reaction of Bz-Arg derivatives on PAD4 digestion
Type: biochemical
Conditions: substrate Bz-Arg; 20 μl inhibitor solution of 1 nmol/μl; 10 mM CaCl2, pH 7.6; 37° C. for 40 or 60 minutes; reverse-phase HPLC
Protocol: A buffer solution B (0.1 M Tris/HCl, 10 mM CaCl2, 2 mM DTT, pH 7.6, 125 μl), Bz-Arg (0.1 M Tris/HCl, 10 mM CaCl2, pH 7.6, 25 μl (a solution prepared in a concentration of 1 nmol/μl)) and PAD4 (1 μl) were mixed together under ice-cooling to give a Bz-Arg solution. PAD4 was prepared in accordance with the methods described in The Journal of Biological Chemistry, Vol. 277, No. 51, pp. 49562-49568, 2002 and in the documents cited in the journal. Twenty μl each of Bz-Arg (mono-methyl), Bz-ADMA, Bz-SDMA and a buffer solution A (0.1 M Tris/HCl, 10 mM CaCl2, pH 7.6) (a solution prepared in a concentration of 1 nmol/μl) was mixed with the Bz-Arg solution (30 μl) and allowed to react at 37° C. for 40 or 60 minutes. The reaction was quenched with 1 M HCl (50 μl) and then subjected to reverse-phase HPLC to separate the reaction mixture. […] The results as determined 40 minutes and 60 minutes after the start of reaction are shown in FIG. 3 and FIG. 4, respectively. In FIGS. 3 and 4, the reference number 1 represents the result with no inhibitor, 2 for the result with Bz-Arg (mono-methyl), 3 for the results with Bz-ADMA, and 4 for the result with Bz-SDMA; the vertical axis indicates the sample number and the horizontal axis indicates the yield of the deimination reaction (i.e., yield of the Bz-citrulline produced).

T1 sequence (Q9UM07 whole entry G55S/V82A/G112A): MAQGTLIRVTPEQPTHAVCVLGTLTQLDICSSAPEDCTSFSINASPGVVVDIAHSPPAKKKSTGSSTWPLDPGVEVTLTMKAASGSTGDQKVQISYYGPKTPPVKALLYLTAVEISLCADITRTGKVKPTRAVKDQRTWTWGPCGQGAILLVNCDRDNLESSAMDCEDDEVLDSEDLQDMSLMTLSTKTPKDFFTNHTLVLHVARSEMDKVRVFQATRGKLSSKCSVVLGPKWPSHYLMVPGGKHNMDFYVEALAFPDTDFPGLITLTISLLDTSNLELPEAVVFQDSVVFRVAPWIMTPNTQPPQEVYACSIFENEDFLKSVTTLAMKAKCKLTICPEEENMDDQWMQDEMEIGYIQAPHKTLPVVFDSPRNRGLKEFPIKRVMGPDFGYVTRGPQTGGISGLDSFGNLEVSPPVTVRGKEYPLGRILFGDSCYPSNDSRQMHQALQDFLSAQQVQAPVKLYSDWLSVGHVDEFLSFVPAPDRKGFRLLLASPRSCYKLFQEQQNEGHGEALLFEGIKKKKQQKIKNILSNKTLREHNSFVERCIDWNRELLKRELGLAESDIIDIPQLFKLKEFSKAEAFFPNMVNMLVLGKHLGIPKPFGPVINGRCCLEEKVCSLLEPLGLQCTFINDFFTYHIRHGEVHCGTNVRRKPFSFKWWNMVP

inhibitory effect on PAD4 digestion (deimination of Bz-Arg, yield of the Bz-citrulline produced)	SMILES
most potent inhibitory effect	CN(C)C(=N)NCCCC(NC(=O)c1ccccc1)C(=O)O (centres unmarked) [Bz-ADMA]
no inhibitory effect	C/N=C(/NC)NCCCC(NC(=O)c1ccccc1)C(=O)O (centres unmarked) [Bz-SDMA]
